Assay results from patent publication US20130303439A1, “CHIMERIC PEPTIDES INCLUDING A PENETRATING PEPTIDE AND A BINDING DOMAIN OF PP2A CATALYTIC SUBUNIT TO CASPASE-9” (Institut National de la Sante et de la Recherche Medicale …, priority 2010, published 2013).
Residues, ends and D or L forms follow the SMILES beside them.

Test: Cell penetration / internalization of peptides
Assay type: cell-based

| Structure (SMILES) | Cell penetration | internalized |
| --- | --- | --- |
| CC[C@H](C)[C@H](NC(=O)CNC(=O)[C@H](CC(=O)O)NC(=O)[C@H](CC(C)C)NC(=O)[C@@H](NC(=O)[C@H](CCC(=O)O)NC(=O)[C@@H](NC(=O)[C@@H](N)Cc1ccc(O)cc1)[C@@H](C)CC)[C@@H](C)O)C(=O)N[C@@H](CC(C)C)C(=O)N[C@@H](CCC(=O)O)C(=O)N[C@@H](CCC(N)=O)C(=O)N[C@@H](Cc1c[nH]c2ccccc12)C(=O)N[C@@H](C)C(=O)N[C@@H](CCCNC(=N)N)C(=O)N[C@@H](CO)C(=O)N[C@@H](CCC(=O)O)C(=O)N[C@@H](CC(=O)O)C(=O)N[C@@H](CC(C)C)C(=O)O [C9, YIETLDGILEQWARSEDL] (H-YIETLDGILEQWARSEDL-OH; N-terminus and C-terminus assumed) | No | is not internalized |
| CC[C@H](C)[C@H](NC(=O)CNC(=O)[C@H](CC(=O)O)NC(=O)[C@H](CC(C)C)NC(=O)[C@@H](NC(=O)[C@H](CCC(=O)O)NC(=O)[C@@H](NC(=O)[C@H](Cc1ccc(O)cc1)NC(=O)[C@@H](NC(=O)[C@H](CCCCN)NC(=O)[C@@H](NC(=O)[C@H](CCC(=O)O)NC(=O)[C@H](CCCNC(=N)N)NC(=O)[C@H](CCCCN)NC(=O)[C@@H](NC(=O)[C@H](CCCCN)NC(=O)[C@H](CCCCN)NC(=O)[C@H](CCCCN)NC(=O)[C@H](CCCCN)NC(=O)[C@@H](N)C(C)C)[C@@H](C)CC)[C@@H](C)CC)[C@@H](C)CC)[C@@H](C)CC)[C@@H](C)O)C(=O)N[C@@H](CC(C)C)C(=O)N[C@@H](CCC(=O)O)C(=O)N[C@@H](CCC(N)=O)C(=O)N[C@@H](Cc1c[nH]c2ccccc12)C(=O)N[C@@H](C)C(=O)N[C@@H](CCCNC(=N)N)C(=O)N[C@@H](CO)C(=O)N[C@@H](CCC(=O)O)C(=O)N[C@@H](CC(=O)O)C(=O)N[C@@H](CC(C)C)C(=O)O [DPT-C9, VKKKKIKREIKI-YIETLDGILEQWARSEDL] (H-VKKKKIKREIKIYIETLDGILEQWARSEDL-OH; N-terminus and C-terminus assumed) | Yes | are internalized |
| CC[C@H](C)[C@H](NC(=O)[C@H](CC(C)C)NC(=O)[C@H](CCC(=O)O)NC(=O)[C@H](CCC(N)=O)NC(=O)[C@H](Cc1c[nH]c2ccccc12)NC(=O)[C@H](C)NC(=O)[C@H](CCCNC(=N)N)NC(=O)[C@H](CO)NC(=O)[C@H](CCC(=O)O)NC(=O)[C@H](CC(=O)O)NC(=O)[C@H](CC(C)C)NC(=O)[C@@H](NC(=O)[C@H](CCCCN)NC(=O)[C@@H](NC(=O)[C@H](CCC(=O)O)NC(=O)[C@H](CCCNC(=N)N)NC(=O)[C@H](CCCCN)NC(=O)[C@@H](NC(=O)[C@H](CCCCN)NC(=O)[C@H](CCCCN)NC(=O)[C@H](CCCCN)NC(=O)[C@H](CCCCN)NC(=O)[C@@H](N)C(C)C)[C@@H](C)CC)[C@@H](C)CC)[C@@H](C)CC)C(=O)NCC(=O)N[C@@H](CC(=O)O)C(=O)N[C@@H](CC(C)C)C(=O)N[C@H](C(=O)N[C@@H](CCC(=O)O)C(=O)N[C@H](C(=O)N[C@@H](Cc1ccc(O)cc1)C(=O)O)[C@@H](C)CC)[C@@H](C)O [DPT-C9r, VKKKKIKREIKI-LDESRAWQELIGDLTEIY] (H-VKKKKIKREIKILDESRAWQELIGDLTEIY-OH; N-terminus and C-terminus assumed) | Yes | are internalized |
| N=C(N)NCCC[C@H](NC(=O)[C@H](CCCNC(=N)N)NC(=O)[C@H](CCCNC(=N)N)NC(=O)[C@H](CCC(N)=O)NC(=O)[C@H](CCCNC(=N)N)NC(=O)[C@H](CCCNC(=N)N)NC(=O)[C@H](CCCCN)NC(=O)[C@H](CCCCN)NC(=O)[C@H](CCCNC(=N)N)NC(=O)CNC(=O)[C@@H](N)Cc1ccc(O)cc1)C(=O)O [Tat, YGRKKRRQRRR] | – | are internalized |
